System: subjects with metastatic or surgically unresectable urothelial cancer
Details: all-causality

COc1cc(OC)cc(N(CCNC(C)C)c2ccc3ncc(-c4cnn(C)c4)nc3c2)c1 [erdafitinib, N-(3,5-dimethoxy-phenyl)-N′-(1-methylethyl)-N-[3-(1-methyl-1H-pyrazol-4-yl)quinoxalin-6-yl]ethane-1,2-diamine]
Pain in extremity, grade 1 (8 mg continuous, n = 99): 10 no. | Pain in extremity, grade 2 (8 mg continuous, n = 99): 2 no. | Pain in extremity, grade ≥ 3 (8 mg continuous, n = 99): 0 no. | Paronychia, any grade (8 mg continuous, n = 99): 17 no. | Paronychia, grade 1 (8 mg continuous, n = 99): 3 no. | Paronychia, grade 2 (8 mg continuous, n = 99): 11 no. | Paronychia, grade ≥ 3 (8 mg continuous, n = 99): 3 no. | Peripheral edema, any grade (8 mg continuous, n = 99): 9 no. | Peripheral edema, grade 1 (8 mg continuous, n = 99): 5 no. | Peripheral edema, grade 2 (8 mg continuous, n = 99): 3 no. | Peripheral edema, grade ≥ 3 (8 mg continuous, n = 99): 1 no. | Pyrexia, any grade (8 mg continuous, n = 99): 13 no. | Pyrexia, grade 1 (8 mg continuous, n = 99): 8 no. | Pyrexia, grade 2 (8 mg continuous, n = 99): 5 no. | Pyrexia, grade ≥ 3 (8 mg continuous, n = 99): 0 no. | Retinal detachment, any grade (8 mg continuous, n = 99): 5 no. | Retinal detachment, grade 1 (8 mg continuous, n = 99): 3 no. | Retinal detachment, grade 2 (8 mg continuous, n = 99): 2 no. | Retinal detachment, grade ≥ 3 (8 mg continuous, n = 99): 0 no. | Stomatitis, any grade (8 mg continuous, n = 99): 57 no. | Stomatitis, grade 1 (8 mg continuous, n = 99): 21 no. | Stomatitis, grade 2 (8 mg continuous, n = 99): 26 no. | Stomatitis, grade ≥ 3 (8 mg continuous, n = 99): 10 no. | Urinary tract infection, any grade (8 mg continuous, n = 99): 16 no. | Urinary tract infection, grade 1 (8 mg continuous, n = 99): 0 no. | Urinary tract infection, grade 2 (8 mg continuous, n = 99): 11 no. | Urinary tract infection, grade ≥ 3 (8 mg continuous, n = 99): 5 no. | Vision blurred, any grade (8 mg continuous, n = 99): 17 no. | Vision blurred, grade 1 (8 mg continuous, n = 99): 10 no. | Vision blurred, grade 2 (8 mg continuous, n = 99): 7 no. | Vision blurred, grade ≥ 3 (8 mg continuous, n = 99): 0 no. | Vomiting, any grade (8 mg continuous, n = 99): 13 no. | Vomiting, grade 1 (8 mg continuous, n = 99): 10 no. | Vomiting, grade 2 (8 mg continuous, n = 99): 1 no. | Vomiting, grade ≥ 3 (8 mg continuous, n = 99): 2 no. | Weight decreased, any grade (8 mg continuous, n = 99): 15 no. | Weight decreased, grade 1 (8 mg continuous, n = 99): 7 no. | Weight decreased, grade 2 (8 mg continuous, n = 99): 8 no. | Weight decreased, grade ≥ 3 (8 mg continuous, n = 99): 0 no. | Abdominal pain, any grade (10 mg intermittent, n = 33): 5 no. | Abdominal pain, grade 1 (10 mg intermittent, n = 33): 2 no. | Abdominal pain, grade 2 (10 mg intermittent, n = 33): 2 no. | Abdominal pain, grade ≥ 3 (10 mg intermittent, n = 33): 1 no. | Alanine aminotransferase increased, any grade (10 mg intermittent, n = 33): 1 no. | Alanine aminotransferase increased, grade 1 (10 mg intermittent, n = 33): 0 no. | Alanine aminotransferase increased, grade 2 (10 mg intermittent, n = 33): 1 no. | Alanine aminotransferase increased, grade ≥ 3 (10 mg intermittent, n = 33): 0 no. | Alopecia, any grade (10 mg intermittent, n = 33): 4 no. | Alopecia, grade 1 (10 mg intermittent, n = 33): 2 no. | Alopecia, grade 2 (10 mg intermittent, n = 33): 2 no. | Alopecia, grade ≥ 3 (10 mg intermittent, n = 33): 0 no. | Anemia, any grade (10 mg intermittent, n = 33): 8 no. | Anemia, grade 1 (10 mg intermittent, n = 33): 1 no. | Anemia, grade 2 (10 mg intermittent, n = 33): 1 no. | Anemia, grade ≥ 3 (10 mg intermittent, n = 33): 6 no. | Arthralgia, any grade (10 mg intermittent, n = 33): 7 no. | Arthralgia, grade 1 (10 mg intermittent, n = 33): 3 no. | Arthralgia, grade 2 (10 mg intermittent, n = 33): 2 no. | Arthralgia, grade ≥ 3 (10 mg intermittent, n = 33): 2 no. | Aspartate aminotransferase increased, any grade (10 mg intermittent, n = 33): 2 no. | Aspartate aminotransferase increased, grade 1 (10 mg intermittent, n = 33): 2 no. | Aspartate aminotransferase increased, grade 2 (10 mg intermittent, n = 33): 0 no. | Aspartate aminotransferase increased, grade ≥ 3 (10 mg intermittent, n = 33): 0 no. | Asthenia, any grade (10 mg intermittent, n = 33): 10 no. | Asthenia, grade 1 (10 mg intermittent, n = 33): 5 no. | Asthenia, grade 2 (10 mg intermittent, n = 33): 3 no. | Asthenia, grade ≥ 3 (10 mg intermittent, n = 33): 2 no. | Back pain, any grade (10 mg intermittent, n = 33): 5 no. | Back pain, grade 1 (10 mg intermittent, n = 33): 1 no. | Back pain, grade 2 (10 mg intermittent, n = 33): 1 no. | Back pain, grade ≥ 3 (10 mg intermittent, n = 33): 3 no. | Blood creatinine increased, any grade (10 mg intermittent, n = 33): 4 no. | Blood creatinine increased, grade 1 (10 mg intermittent, n = 33): 3 no. | Blood creatinine increased, grade 2 (10 mg intermittent, n = 33): 1 no. | Blood creatinine increased, grade ≥ 3 (10 mg intermittent, n = 33): 0 no. | Conjunctivitis, any grade (10 mg intermittent, n = 33): 4 no. | Conjunctivitis, grade 1 (10 mg intermittent, n = 33): 3 no. | Conjunctivitis, grade 2 (10 mg intermittent, n = 33): 1 no. | Conjunctivitis, grade ≥ 3 (10 mg intermittent, n = 33): 0 no. | Constipation, any grade (10 mg intermittent, n = 33): 14 no. | Constipation, grade 1 (10 mg intermittent, n = 33): 8 no. | Constipation, grade 2 (10 mg intermittent, n = 33): 6 no. | Constipation, grade ≥ 3 (10 mg intermittent, n = 33): 0 no. | Decreased appetite, any grade (10 mg intermittent, n = 33): 11 no. | Decreased appetite, grade 1 (10 mg intermittent, n = 33): 4 no. | Decreased appetite, grade 2 (10 mg intermittent, n = 33): 6 no.
